Entries after “also recorded” stand apart in the source; their conditions may differ. Read-outs that look alike come from different tables or passages of the source. One block for each molecule: values may come before it. Numbered stars: 1 amine (or outer) side, 2 acyl side, 3 side chain; on linkers, the order of the positions; unused ones are H or OH. Square brackets hold non-standard residues; d marks the D form. Peptide text beside a SMILES is read from it. X3 = CCCCCCOC(=O)N=C(NCCC[C@H](C(=O)[*:2])N(C)[*:1])NC(=O)OCCCCCC; X1 = CCCCCCOC(=O)N=C(NCCC[C@@H](N[*:1])C(=O)[*:2])NC(=O)OCCCCCC; X2 = CCCCCCOC(=O)N=C(N)NCCC[C@H](N[*:1])C(=O)[*:2]; dNMeV = CN[C@@H](C(=O)O)C(C)C; NMeA = CN[C@@H](C)C(=O)O
Legend:
[1] = pH 7.4, LogD
[2] = for Papp A→B: Caco-2, Papp (AB); for Papp B→A: Caco-2, Papp (BA)
in vitro = settings: human, Caco-2, pH 7.4
[3] = Caco-2 permeability study (Examples 1, 2 and 4, Table 3); format: in vitro ADME, human; settings: for Papp A→B at 150 min, 10 μg/ml / Papp B→A at 150 min, 10 μg/ml: human; for efflux ratio: Table 3
[4] = Metabolic stability in rat plasma; format: in vitro ADME; settings: 37° C., up to 90 minutes
Description: The enzymatic reactions were performed as follows: 2 mM stock solutions of the tested compounds were diluted with serum or purified brush border membrane vesicles (BBMVs) solution to a final concentration of 0.5 mM. During incubation at 37° C. samples were taken for a period of 90 minutes. The enzymatic reaction was stopped by adding 1:1 v/v of ice cold acetonitrile and centrifuge (4000 g, 10 min) before analysis. Preparation of BBMVs: The BBMVs was prepared from combined duodenum, jejunum, and upper ileum (male Wistar rats) by a Ca^++ precipitation method. Purification of the BBMVs was assayed using GGT, LAP and alkaline phosphatase as membrane enzyme markers
Peptides 12 and 12p were subjected to rat plasma and followed their degradation. Rat plasma is known to be rich with esterases.

[5] = Pharmacokinetic study in rats after oral administration; format: in vivo, Wistar rats; settings: rat, oral 5 mg/kg; peptide 12 measured in plasma; 12P given as dispersed 12P SNEDDS
Description: In Vivo Studies. Male Wistar rats (Harlan, Israel), 275-300 g in weight, were used for all surgical procedures. Animals were anesthetized for the period of surgery by intraperitoneal injection of 1 mL/kg of ketamine/xylazine solution (9:1), placed on a heated surface, and maintained at 37° C. (Harvard Apparatus Inc., Holliston, MA). An indwelling cannula was placed in the right jugular vein of each animal for systemic blood sampling, by a method described before. The cannula was tunneled beneath the skin and exteriorized at the dorsal part of the neck. After completion of the surgical procedure, the animals were transferred to cages to recover overnight (12-18 h). During this recovery period, food but not water was deprived. Throughout the experiment, free access to food was available 4 h post oral administration. Animals were randomly assigned to the different experimental groups. […] Dispersed 12P SNEDDS (5 mg/kg) was administered to the animals by oral gavage (n=3). Systemic blood samples (0.35 mL) were taken at 5 min predose, 20, 40, 60, 90, 180, 240, and 360 min postdose. To prevent dehydration, equal volumes of physiological solution were administered to the rats following each withdrawal of blood sample. Plasma was separated by centrifugation (5322 g, 10 min) and stored at −20° C. pending analysis. In the 12P pharmacokinetic study, the parent peptide, 12, was analytically determined.
Pharmacokinetic Analysis. The area under the plasma concentration-time curve (AUC) was calculated by using the trapezoidal rule with extrapolation to infinity by dividing the last measured concentration by the elimination rate constant (kel). The elimination rate constant values were determined by a linear regression analysis using the last points on the logarithmic plot of the plasma concentration versus the time curve. Pharmacokinetic parameters, such Tmax, Cmax, clearance (CL), volume of distribution (V), and bioavailability, were calculated using noncompartmental analysis.
Analytical Methods. Plasma or BBMV samples were spiked with metoprolol (1.5 μg/mL) as an internal standard. ACN was added to each sample (2:1) and vortex-mixed for 1 min. The samples were then centrifuged (14 635 g, 10 min), and the supernatant was transferred to fresh glass tubes and evaporated to dryness (Vacuum Evaporation System, Labconco, Kansas City, MO, USA). Then, the glass tubes were reconstituted in 80 μL of mobile phase and centrifuged a second time (14 635 g, 10 min). The amount of the compounds was determined using an HPLC-MS Waters 2695 Separation Module, equipped with a Micromass ZQ detector. The resulting solution was injected (10 μL) into the HPLC system. The system was conditioned as follows: for parent drug peptides (including 12), a Kinetex 2.6 μm HILIC 100 Å, 100 mm×2.1 mm column (Phenomenex, Torrance, CA, USA), an isocratic mobile phase, and an acetonitrile:water:ammonium acetate buffer 50 mM (70:10:20, v/v/v) was used; and for the prodrug peptides (including 12P), a Luna (Phenomenex) 3 μm C8 100 Å, 100 mm×2.0 mm column and an isocratic mobile phase of ACN:water supplemented with 0.1% formic acid (70:30, v/v) and a flow rate of 0.2 mL/min at 25° C. was used. The limit of quantification for all of the peptides and prodrugs was 25 ng/mL.
The pharmacokinetic in-vivo study allows a further evaluation of the prodrug concept in the whole animal. The PK studies were performed in conscious Wistar male rats. An indwelling cannula was implanted in the jugular vein 24 hours before the PK experiment to allow full recovery of the animals from the surgical procedure. Animals (n=4) received either an IV bolus dose or oral dose of the investigated compound. Blood samples (with heparin, 15 U/ml) were collected at several time points for up to 6 hours post administration and was assayed by HPLC-MS method. Non-compartmental pharmacokinetic analysis was performed using WinNonlin software.

human αvβ3-integrin = target: T1, human αvβ3-integrin (Homo sapiens, UniProt P05106+P06756); experiment: Solid-phase integrin binding assay, αvβ3
T1 construct: purchased R&D
T1 sequence (P06756 31-992 limits assumed): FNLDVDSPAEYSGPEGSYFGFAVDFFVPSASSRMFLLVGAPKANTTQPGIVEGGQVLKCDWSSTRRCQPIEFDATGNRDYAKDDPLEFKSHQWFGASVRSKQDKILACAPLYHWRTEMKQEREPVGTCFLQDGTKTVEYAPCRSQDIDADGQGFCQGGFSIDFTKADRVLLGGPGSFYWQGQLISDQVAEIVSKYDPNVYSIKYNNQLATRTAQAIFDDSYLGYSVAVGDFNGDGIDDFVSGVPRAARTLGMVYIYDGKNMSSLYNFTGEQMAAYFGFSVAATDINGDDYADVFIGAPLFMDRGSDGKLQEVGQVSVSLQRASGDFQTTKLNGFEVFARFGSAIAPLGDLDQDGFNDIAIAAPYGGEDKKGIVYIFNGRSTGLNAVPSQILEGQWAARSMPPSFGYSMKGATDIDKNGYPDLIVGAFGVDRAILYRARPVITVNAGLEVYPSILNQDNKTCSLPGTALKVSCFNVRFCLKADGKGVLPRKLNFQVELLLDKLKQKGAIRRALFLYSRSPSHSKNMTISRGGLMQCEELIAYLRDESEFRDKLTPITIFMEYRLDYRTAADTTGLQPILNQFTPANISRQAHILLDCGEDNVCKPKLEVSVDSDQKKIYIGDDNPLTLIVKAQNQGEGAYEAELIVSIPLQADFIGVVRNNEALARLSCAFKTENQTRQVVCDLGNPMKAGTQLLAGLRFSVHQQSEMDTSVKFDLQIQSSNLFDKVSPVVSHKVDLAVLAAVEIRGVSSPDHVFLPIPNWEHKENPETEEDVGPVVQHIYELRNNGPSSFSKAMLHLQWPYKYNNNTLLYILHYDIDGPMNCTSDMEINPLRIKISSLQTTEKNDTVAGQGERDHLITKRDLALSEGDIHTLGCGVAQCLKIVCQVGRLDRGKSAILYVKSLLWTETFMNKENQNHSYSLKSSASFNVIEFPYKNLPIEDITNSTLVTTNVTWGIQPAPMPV
T1 sequence (P05106 27-718 limits assumed): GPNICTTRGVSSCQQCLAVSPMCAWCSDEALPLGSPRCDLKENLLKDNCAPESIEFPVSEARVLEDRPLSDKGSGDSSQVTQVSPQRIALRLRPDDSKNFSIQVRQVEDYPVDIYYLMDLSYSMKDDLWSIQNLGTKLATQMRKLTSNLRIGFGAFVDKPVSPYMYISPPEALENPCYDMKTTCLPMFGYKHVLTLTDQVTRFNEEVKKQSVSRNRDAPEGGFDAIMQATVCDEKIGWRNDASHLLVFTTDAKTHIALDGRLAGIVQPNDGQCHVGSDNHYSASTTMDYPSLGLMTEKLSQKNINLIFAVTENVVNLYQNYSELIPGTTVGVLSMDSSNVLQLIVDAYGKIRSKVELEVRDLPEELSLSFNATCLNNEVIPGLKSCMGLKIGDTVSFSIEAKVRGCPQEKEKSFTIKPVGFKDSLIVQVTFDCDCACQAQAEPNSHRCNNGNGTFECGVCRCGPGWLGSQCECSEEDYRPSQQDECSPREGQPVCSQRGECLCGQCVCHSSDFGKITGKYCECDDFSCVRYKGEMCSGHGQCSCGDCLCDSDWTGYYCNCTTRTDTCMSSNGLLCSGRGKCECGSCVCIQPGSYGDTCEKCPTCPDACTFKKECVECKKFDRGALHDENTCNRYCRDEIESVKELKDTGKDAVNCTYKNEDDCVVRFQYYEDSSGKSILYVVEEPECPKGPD

[6] = Log D, octanol/PBS distribution coefficient; settings: for logD at 1 h: pH 7.4, LogD
[7] = Caco-2 bidirectional permeability with or without verapamil (Example 6); settings: human, 90 min, without verapamil; for Papp A→B at 90 min, 10 μM: Caco-2, pH 7.4, Papp (AB); for Papp B→A at 90 min, 10 μM: Caco-2, pH 7.4, Papp (BA)
Caco-2 cells = experiment: as above
[8] = pH 7.4, reported value (mean or bound)
[9] = Caco-2, Table 3, n = 3, read-out: Papp AB
[10] = Caco-2, Table 3, n = 3, read-out: Papp BA

logD [1, 8]: 1.85
logD ([1]; pH 7.4, single determinations): 1.91
Papp A→B ([2]; Mean): 0.3 ×10⁻⁶ cm/s
Papp A→B ([2]; replicate 1): 0.3 ×10⁻⁶ cm/s
Papp A→B ([2]; replicate 2): 0.3 ×10⁻⁶ cm/s
Papp A→B ([2]; replicate 3): 0.2 ×10⁻⁶ cm/s
Papp B→A ([2]; Mean): 0.3 ×10⁻⁶ cm/s
Papp B→A ([2]; replicate 1): 0.2 ×10⁻⁶ cm/s
Papp B→A ([2]; replicate 2): 0.2 ×10⁻⁶ cm/s
Papp B→A ([2]; replicate 3): 0.3 ×10⁻⁶ cm/s
permeability in the PAMPA-GIT model system: low permeability
efflux ratio at 90 min, 10 µM (in vitro): 1
Compound: CCCCCCOC(=O)N=C(N)NCCC[C@@H]1NC(=O)[C@@H](C(C)C)N(C)C(=O)[C@H](C)N(C)C(=O)[C@H](C)NC(=O)[C@H](CC(=O)OC)NC(=O)CNC1=O [#29P-Hoc] (cyclo(A[NMeA][dNMeV][X2]GD(OMe)))

logD [1, 8]: 3.95
logD ([1]; pH 7.4, single determinations): 3.76
Papp A→B ([2]; Mean): 0.3 ×10⁻⁶ cm/s
Papp A→B ([2]; replicate 1): 0.6 ×10⁻⁶ cm/s
Papp A→B ([2]; replicate 2): 0.2 ×10⁻⁶ cm/s
Papp A→B ([2]; replicate 3): 0.2 ×10⁻⁶ cm/s
Papp B→A ([2]; Mean): 0.3 ×10⁻⁶ cm/s
Papp B→A ([2]; replicate 1): 0.4 ×10⁻⁶ cm/s
Papp B→A ([2]; replicate 2): 0.3 ×10⁻⁶ cm/s
Papp B→A ([2]; replicate 3): 0.3 ×10⁻⁶ cm/s
Permeability, replicate 1 (PAMPA, pH 7.4): Outlier −8.1 Log10[10^−6 cm/s]
efflux ratio at 90 min, 10 µM (in vitro): 1.1
Compound: CCCCCCOC(=O)N=C(NCCC[C@@H]1NC(=O)[C@H](C(C)C)N(C)C(=O)[C@@H](Cc2ccccc2)NC(=O)[C@H](CC(=O)OC)NC(=O)CNC1=O)NC(=O)OCCCCCC [Cil.-P, c(f*VR(Hoc)2GD)]

Compound: C[C@@H]1NC(=O)[C@H](C)N(C)C(=O)[C@H](C)NC(=O)[C@H](CC(=O)O)NC(=O)CNC(=O)[C@@H](CCCNC(=N)N)N(C)C1=O [Peptide 5, c(*rGDA*AA)]
Papp A→B at 150 min, 10 μg/ml ([3]; Caco-2, running text, unit inferred, read-out: Caco-2 A-to-B Papp): 0.3 ×10⁻⁶ cm/s
Papp B→A at 150 min, 10 μg/ml ([3]; Caco-2, Table 3, n = 3): 0.42 ± 0.11 ×10⁻⁶ cm/s
Papp A→B at 150 min, 10 μg/ml [3, 9]: 0.38 ± 0.01 ×10⁻⁶ cm/s

Papp B→A [3, 10]: 22.1 ± 3.58 ×10⁻⁶ cm/s
Papp B→A ([3]; Caco-2, running text, unit inferred, read-out: Caco-2 B-to-A Papp): 21.2 ×10⁻⁶ cm/s
Papp A→B ([3]; Caco-2, unit inferred, read-out: Caco-2 A-to-B Papp (converted)): 0.6 ×10⁻⁶ cm/s
efflux ratio ([3]; Caco-2): 36.7
Compound: CCCCCCOC(=O)N=C(NCCC[C@@H]1C(=O)NCC(=O)N[C@@H](CC(=O)OC)C(=O)N[C@@H](C)C(=O)N(C)[C@@H](C)C(=O)N[C@@H](C)C(=O)N1C)NC(=O)OCCCCCC [Peptide 5P, c(*r(Hoc)2GD(OMe)A*AA)] (cyclo(A[NMeA]A[X3]GD(OMe)))

Compound: C[C@@H]1NC(=O)[C@H](CC(=O)O)NC(=O)CNC(=O)[C@H](CCCNC(=N)N)NC(=O)[C@@H](C)N(C)C(=O)[C@H](C)N(C)C1=O [Peptide 12, c(*aRGDA*A)]
Papp B→A at 150 min, 10 μg/ml ([3]; Caco-2, Table 3, n = 3): 0.12 ± 0.01 ×10⁻⁶ cm/s
Papp A→B at 150 min, 10 μg/ml [3, 9]: 0.04 ± 0.02 ×10⁻⁶ cm/s
metabolic stability in rat plasma, in words [4]: remained stable
Kel [5]: 0.04 ± 0.005 min⁻¹

Compound: C[C@@H]1NC(=O)[C@H](CC(=O)O)NC(=O)CNC(=O)[C@@H](CCCNC(=N)N)NC(=O)[C@H](C)N(C)C(=O)[C@H](C)N(C)C1=O [Peptide 23, c(rGDA*A*A)]
Papp B→A at 150 min, 10 μg/ml ([3]; Caco-2, Table 3, n = 3): 1.34 ± 0.03 ×10⁻⁶ cm/s
Papp A→B at 150 min, 10 μg/ml [3, 9]: 0.61 ± 0.09 ×10⁻⁶ cm/s

Papp A→B [3, 9]: 1.77 ± 0.55 ×10⁻⁶ cm/s
Papp B→A [3, 10]: 74.8 ± 20.4 ×10⁻⁶ cm/s
efflux ratio ([3]; Caco-2): 42.2
Compound: CCCCCCOC(=O)N=C(NCCC[C@H]1NC(=O)[C@H](C)N(C)C(=O)[C@H](C)N(C)C(=O)[C@H](C)NC(=O)[C@H](CC(=O)OC)NC(=O)CNC1=O)NC(=O)OCCCCCC [Peptide 23P, c(r(Hoc)2GD(OMe)A*A*A)] (cyclo(A[NMeA][NMeA][X1]GD(OMe)))

Compound: CC(C)[C@@H]1C(=O)N[C@@H](CCCNC(=N)N)C(=O)NCC(=O)N[C@@H](CC(=O)O)C(=O)N[C@@H](C)C(=O)N(C)[C@@H](C)C(=O)N1C [Peptide 29, c(*vRGDA*A)]
affinity for αvβ3, in words (human αvβ3-integrin): subnanomolar affinity; also recorded: subnanomolar IC50
Papp B→A at 150 min, 10 μg/ml ([3]; Caco-2, Table 3, n = 3): 0.15 ± 0.01 ×10⁻⁶ cm/s
Papp A→B at 150 min, 10 μg/ml [3, 9]: 0.07 ± 0.01 ×10⁻⁶ cm/s
LogD, pH 7.4, reported value (mean or bound) ([6]; octanol/PBS pH 7.4): <−1
logD at 1 h ([6]; pH 7.4, reported value (mean or bound), octanol/PBS pH 7.4): < -1
logD at 1 h ([6]; pH 7.4, single determinations, octanol/PBS pH 7.4, triplicate values): -1.75
Papp A→B at 90 min, 10 μM ([7]; Mean, 10 μM): 0.7 ×10⁻⁶ cm/s
Papp A→B at 90 min, 10 μM ([7]; replicate 1, 10 μM): 1 ×10⁻⁶ cm/s
Papp A→B at 90 min, 10 μM ([7]; replicate 2, 10 μM): 0.2 ×10⁻⁶ cm/s
Papp A→B at 90 min, 10 μM ([7]; replicate 3, 10 μM): 0.9 ×10⁻⁶ cm/s
Papp B→A at 90 min, 10 μM ([7]; Mean, 10 μM): 0.3 ×10⁻⁶ cm/s
Papp B→A at 90 min, 10 μM ([7]; replicate 1, 10 μM): 0.3 ×10⁻⁶ cm/s
Papp B→A at 90 min, 10 μM ([7]; replicate 2, 10 μM): 0.4 ×10⁻⁶ cm/s
Papp B→A at 90 min, 10 μM ([7]; replicate 3, 10 μM): 0.2 ×10⁻⁶ cm/s
Net efflux (Papp (BA) / Papp (AB)), in the presence of Verapamil (Caco-2 cells; verapamil 100 μM): 0.1
Net efflux (Papp (BA) / Papp (AB)) (Caco-2 cells; without verapamil): 0.4

Compound: C[C@@H]1NC(=O)[C@H](CC(=O)O)NC(=O)CNC(=O)[C@H](CCCNC(=N)N)NC(=O)[C@@H](Cc2ccccc2)N(C)C(=O)[C@H](C)N(C)C1=O [Peptide 30, c(*fRGDA*A)]
affinity for αvβ3, in words (human αvβ3-integrin): subnanomolar affinity
IC50 (human αvβ3-integrin; Table 1): 0.6 ± 0.2 nM

— patent publication US11965041B2, “N-methylated cyclic peptides and their prodrugs” (TECHNISCHE UNIVERSITAET MUENCHEN, priority 2017, dated 2024)
